Laboratory results published in patent publication US8017128B2, “Cosmetic active ingredient composed of arginine ferrulate and a microalgae extract and its uses” (priority 2006, dated 2011).

Key:
[1] = test system: thioredoxin reductase (TrxR); settings: donor
Description: A volume corresponding to 50 μg of proteins of each cell extract is incubated with a mixture of HEPES, 80 mM pH 7.5, 0.9 mg/ml of NADPH, EDTA 6 mM, 2 mg/ml of insulin and 10 μM of Trx of E. coli, at 37° C. for 20 minutes in a final volume of 120 μL. The reaction is stopped by the addition of 500 μL of DTNB (dithio-bis-nitrobenzoic acid) (0.4 mg/ml) in guanidine hydrochloride 6 M/Tris-Cl 0.2 M (pH 8.0). A control sample containing everything except the Trx is incubated and treated in the same way as each sample.
The absorbance at 412 nm is measured and the value of the control subtracted from the value of the corresponding absorbance of the sample.
A standard curve is prepared using TrxR from purified calf thymus, with a defined specific activity.

glycated proteins = assay: Reduction in glycated proteins in treated cells; type: cell-based
thioredoxin = settings: donor; NAC (10 mM) alone

Structure (SMILES): C=CC=O [Acrolein]
- TrxR activity, % change vs control ([1]; Acrolein 25 μM alone): −37%
- TrxR Activity ([1]; Acrolein 25 μM in the culture medium, alone): 130.8 ± 11.4 ng of TrxR/mg of total proteins

Structure (SMILES): COc1cc(/C=C/C(=O)O)ccc1O [arginine ferulate]
- content required to inhibit 50% of the formation of glycated proteins in the cells (glycated proteins): 0.005%-0.02%

Structure (SMILES): CC(=O)N[C@@H](CS)C(=O)O [NAC, N-Acetyl-cysteine]
- Thioredoxin Level (thioredoxin): 59.8 ± 8.1 ng of Trx/mg of total proteins
- Thioredoxin level, % change vs control (thioredoxin): −32%
